Columns and labels:
[1] = target: T1, thromboxane-A2 receptor (Homo sapiens, UniProt P21731); assay: inhibition of U-46619-induced aggregation of aspirinated washed human platelets; format: cell-based; design: U-46619 induced platelet aggregation of aspirinated human washed platelets and in human platelet rich plasma; endogenous in cells; host or cells: human platelets (aspirinated washed platelets in A1; platelet rich plasma in A2); conditions: in vitro
T1 sequence (P21731 1-343): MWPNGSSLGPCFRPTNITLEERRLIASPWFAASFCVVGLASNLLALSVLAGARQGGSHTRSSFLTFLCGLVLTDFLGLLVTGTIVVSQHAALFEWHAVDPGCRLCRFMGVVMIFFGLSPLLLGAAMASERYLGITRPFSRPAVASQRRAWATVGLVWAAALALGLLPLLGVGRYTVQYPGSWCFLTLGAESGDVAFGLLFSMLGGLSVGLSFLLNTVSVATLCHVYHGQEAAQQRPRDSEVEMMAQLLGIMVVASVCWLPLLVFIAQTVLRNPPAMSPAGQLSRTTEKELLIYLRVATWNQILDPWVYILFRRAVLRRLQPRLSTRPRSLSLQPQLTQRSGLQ
Procedure: Acad. Sci. 76, 4097 (1979).
(§1) The inhibition of thromboxane-A2 receptor activity is determined by measuring the inhibition of U-46619 induced platelet aggregation of aspirinated human washed platelets and in human platelet rich plasma. U-46619 is (15S)-hydroxy-11-α,9-α(epoxymethanol)-prosta-(5Z,13E)-dienoic acid, a throm boxane-A2 receptor agonist, as described by Di Minno et at, Thromb. Haemost. 45, 103 (1981).

[2] = target: T1, thromboxane-A2 receptor; assay: inhibition of U-46619 induced aggregation in human platelet rich plasma; format: cell-based; conditions: in vitro
Procedure: as §1
(§2) Such inhibition of platelet aggregation is determined using methodology known in the art, e.g. in vitro in the presence of a compound of the invention in human platelet rich plasma, or by measuring the inhibition of aggregation seen in plasma obtained from a mammal previously administered a compound of the invention, e.g. orally or intravenously when compared to controls. Platelet aggregation is measured in a Born aggregometer and platelet rich plasma is prepared from venous blood e.g. as described in Br. J. Haematol. 43, 637 (1979). Suitable test animals are anesthetized rats or guinea pigs and unanesthetized rabbits or cyanomolgus monkeys.

[3] = test system: U46619-induced platelet aggregation; assay: inhibition of U46619-induced platelet aggregation after oral dosing in guinea pigs; format: in vivo, guinea pig
Procedure: as §2

[4] = test system: thromboxane synthetase; assay: serum thromboxane B2, 6-keto-PGF1α and PGE2 levels after oral dosing in cyanomolgus monkeys; format: in vivo, cyanomolgus monkey; conditions: 30 mg/kg
[5] = test system: U46619-induced ex vivo platelet aggregation; assay: U46619-induced ex vivo platelet aggregation after oral dosing in cyanomolgus monkeys; design: species or system cyanomolgus monkey; conditions: 30 mg/kg
Procedure: as §2

[6] = concomitant with serum thromboxane B2 inhibition

Row | IC50 [1] [nM] | IC50 [2] [nM] | SMILES | inhibition of U46619-induced platelet aggregation 1 hour post dose ([3]; conscious guinea pigs, oral, 0.3 mg/kg, 1 hour post dose) | increase of the concentration of thromboxane-mimetic required to induce 50% maximal aggregation ([3]; guinea pigs, oral dose of 0.23 mg/kg) [fold] | duration of inhibition of serum thromboxane B2 [4] [h] | 6-keto-PGF1α level [4, 6] | PGE2 level [4, 6] | duration of total inhibition of U46619-induced ex vivo platelet aggregation [5] | time of return of ex vivo platelet aggregation to predose values [5] [h] | inhibition of U46619-induced ex vivo platelet aggregation ([5]; for at least 8 hours)
1 | 28 | ~400 | O=C(O)CCC=CCCC1C(OCc2ccc(-c3ccccc3)cc2)COC1c1cccnc1 (stereo not drawn) [Example 8(a), (Z)-(2α,3β,4β)-7-[4-(biphenyl-4-yl-methoxy)-2-(3-pyridyl)tetrahydrofuran-3-yl)hept-4-enoic acid] |  |  |  |  |  |  |  | 
2 | 26.5 | 250 | O=C(O)CC/C=C\CC[C@@H]1[C@@H](OCc2ccc(-c3ccccc3)cc2)CO[C@@H]1c1cccnc1 [Example 1, (Z)-(2S,3S,4R)-7-[4-(1,1'-biphenyl-4-ylmethoxy)-2-(3-pyridyl)tetrahydrofuran-3-yl]-4-heptenoic acid] | effectively inhibits | 50 | 24 | elevations | elevations | at least 8 hours | 24 | totally inhibited
